Source: the supplement of paper PMC10307832

What was measured:
Assay in all cases: relative viability (nuclei count vs DMSO), 5 days (fraction); higher = more cells survive
Pictilisib + Luminespib = compound: CS(=O)(=O)N1CCN(Cc2cc3nc(-c4cccc5[nH]ncc45)nc(N4CCOCC4)c3s2)CC1 [Pictilisib] + CCNC(=O)c1noc(-c2cc(C(C)C)c(O)cc2O)c1-c1ccc(CN2CCOCC2)cc1 [Luminespib] (partner 0.01 µM)
Method in brief: (§1)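 For relative viability, nuclei counts in treated wells were divided by those in vehicle wells. Lung cancer cell lines had been pin-tool dosed in 1536-well plates the day after seeding and cultured for 5 days, then fixed and stained in one step (final 0.05% Triton X-100, 1% formaldehyde, 1 ug/ml Hoechst) and imaged at 4×. Doses were one drug alone or a fixed anchor-drug dose plus five library-drug doses (not always all listed) in √10 steps, and values are duplicate-plate medians.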

Pictilisib + Linsitinib = compound: CS(=O)(=O)N1CCN(Cc2cc3nc(-c4cccc5[nH]ncc45)nc(N4CCOCC4)c3s2)CC1 [Pictilisib] + C[C@]1(O)C[C@@H](c2nc(-c3ccc4ccc(-c5ccccc5)nc4c3)c3c(N)nccn32)C1 [Linsitinib] (partner 1 µM)
Method in brief: as §1

Pictilisib + Pemetrexed = compound: CS(=O)(=O)N1CCN(Cc2cc3nc(-c4cccc5[nH]ncc45)nc(N4CCOCC4)c3s2)CC1 [Pictilisib] + Nc1nc2[nH]cc(CCc3ccc(C(=O)N[C@@H](CCC(=O)O)C(=O)O)cc3)c2c(=O)[nH]1 [Pemetrexed] (partner 0.2 µM)
Method in brief: as §1

MK-2206 + OSI-027 = compound: NC1(c2ccc(-c3nc4ccn5c(=O)[nH]nc5c4cc3-c3ccccc3)cc2)CCC1 [MK-2206] + COc1cccc2cc(-c3nc([C@H]4CC[C@H](C(=O)O)CC4)n4ncnc(N)c34)[nH]c12 [OSI-027] (partner 0.5 µM)
Method in brief: as §1

MK-2206 + Phenformin = compound: NC1(c2ccc(-c3nc4ccn5c(=O)[nH]nc5c4cc3-c3ccccc3)cc2)CCC1 [MK-2206] + N=C(N)NC(=N)NCCc1ccccc1 [Phenformin] (partner 250 µM)
Method in brief: as §1

Cell Line | relative viability (Pictilisib + Luminespib; first compound 0.02 µM) | relative viability (Pictilisib + Luminespib; first compound 0.06325 µM) | relative viability (Pictilisib + Luminespib; first compound 0.6325 µM) | relative viability (Pictilisib + Luminespib; first compound 2 µM) | relative viability (Pictilisib + Linsitinib; first compound 0.02 µM) | relative viability (Pictilisib + Linsitinib; first compound 0.06325 µM) | relative viability (Pictilisib + Linsitinib; first compound 0.6325 µM) | relative viability (Pictilisib + Linsitinib; first compound 2 µM) | relative viability (Pictilisib + Pemetrexed; first compound 0.02 µM) | relative viability (Pictilisib + Pemetrexed; first compound 0.06325 µM) | relative viability (Pictilisib + Pemetrexed; first compound 0.6325 µM) | relative viability (Pictilisib + Pemetrexed; first compound 2 µM) | relative viability (MK-2206 + OSI-027; first compound 0.01 µM) | relative viability (MK-2206 + OSI-027; first compound 0.03162 µM) | relative viability (MK-2206 + OSI-027; first compound 1 µM) | relative viability (MK-2206 + Phenformin; first compound 0.01 µM) | relative viability (MK-2206 + Phenformin; first compound 0.03162 µM) | relative viability (MK-2206 + Phenformin; first compound 0.3162 µM) | relative viability (MK-2206 + Phenformin; first compound 1 µM) | relative viability (MK-2206 + OSI-027; first compound 0.3162 µM)
201T | 1.04 | 1 | 0.869 | 0.576 | 0.989 | 1.05 | 0.902 | 0.82 | 0.301 | 0.352 | 0.289 | 0.276 | 0.772 | 0.766 | 0.494 | 0.446 | 0.417 | 0.42 | 0.52 | 
A549 |  |  |  |  | 0.674 | 0.606 | 0.476 | 0.307 |  |  |  |  |  |  |  | 0.173 | 0.152 | 0.203 | 0.124 | 
A-427 | 0.864 | 0.97 | 0.855 | 0.724 | 1.11 | 1.13 | 1.1 | 1.08 | 0.955 | 0.984 | 0.969 | 0.803 | 0.529 | 0.47 | 0.372 | 0.325 | 0.297 | 0.219 | 0.25 | 0.439
ABC-1 | 0.514 | 0.583 | 0.394 | 0.545 | 0.863 | 0.783 | 0.651 | 0.635 |  |  |  |  | 0.552 | 0.494 | 0.379 | 0.265 | 0.235 | 0.196 | 0.232 | 0.381
BEN | 0.54 | 0.269 | 0.275 | 0.438 | 0.948 | 0.891 | 0.947 | 0.683 | 0.809 | 0.858 | 0.81 | 0.546 | 0.3 | 0.301 | 0.297 | 0.258 | 0.267 | 0.272 | 0.295 | 0.271
CAL-12T | 0.452 | 0.249 | 0.339 | 0.143 | 0.986 | 0.732 | 0.807 | 0.424 | 1.31 | 1.4 | 1.18 | 1.04 | 0.67 | 0.554 | 0.485 | 0.492 | 0.561 | 0.626 | 0.564 | 0.452
COR-L23 | 0.768 | 0.808 | 0.562 | 0.442 | 0.914 | 0.886 | 0.878 | 0.387 | 0.187 | 0.185 | 0.199 | 0.19 | 0.793 | 0.712 | 0.611 | 0.417 | 0.452 | 0.422 | 0.459 | 0.689
COR-L 105 | 0.987 | 0.803 | 0.715 | 0.466 | 0.882 | 0.933 | 0.819 | 0.486 | 1.19 | 1.04 | 1.22 | 0.885 | 0.497 | 0.713 | 0.556 | 0.51 | 0.472 | 0.392 | 0.489 | 0.531
Calu-6 |  |  |  |  | 0.981 | 1.02 | 0.868 | 0.829 |  |  |  |  |  |  |  |  |  |  |  | 
ChaGo-K-1 | 0.663 | 0.63 | 0.502 | 0.499 |  |  |  |  | 0.265 | 0.268 | 0.231 | 0.237 | 0.575 | 0.631 | 0.463 | 0.524 | 0.488 | 0.46 | 0.497 | 0.477
EBC-1 |  |  |  |  | 1.02 | 0.966 | 0.768 | 0.195 |  |  |  |  |  |  |  |  |  |  |  | 
EKVX | 0.875 | 0.942 | 0.833 | 0.408 | 1.02 | 0.948 | 0.749 | 0.429 | 0.371 | 0.354 | 0.366 | 0.221 | 0.777 | 0.707 | 0.59 | 0.24 | 0.245 | 0.204 | 0.256 | 0.646
EMC-BAC-2 | 1.23 | 0.945 | 0.926 | 0.656 | 0.809 | 0.787 | 0.716 | 0.538 | 0.45 | 0.451 | 0.424 | 0.41 | 0.415 | 0.364 | 0.313 | 0.526 | 0.546 | 0.475 | 0.431 | 0.287
EPLC-272H | 0.213 | 0.424 | 0.184 | 0.207 | 1.2 | 1.19 | 0.875 | 0.865 | 0.297 | 0.342 | 0.231 | 0.185 | 0.31 | 0.259 | 0.266 | 0.323 | 0.285 | 0.29 | 0.336 | 0.26
H3255 | 0.922 | 0.796 | 0.688 | 0.666 | 1.04 | 0.823 | 0.84 | 0.467 | 0.611 | 0.613 | 0.525 | 0.399 | 0.635 | 0.624 | 0.413 | 0.357 | 0.322 | 0.368 | 0.343 | 0.481
HARA | 0.767 | 0.622 | 0.113 | 0.166 | 0.979 | 1.06 | 0.803 | 0.353 | 0.277 | 0.329 | 0.239 | 0.212 | 0.536 | 0.564 | 0.194 | 0.432 | 0.577 | 0.386 | 0.415 | 0.304
HCC-15 | 0.493 | 0.346 | 0.38 | 0.291 | 0.852 | 0.928 | 0.87 | 0.762 | 0.224 | 0.224 | 0.224 | 0.202 | 0.663 | 0.675 | 0.404 | 0.469 | 0.519 | 0.442 | 0.288 | 0.436
HCC-44 | 1.11 | 1.01 | 0.54 | 0.344 | 0.607 | 0.627 | 0.609 | 0.303 | 0.655 | 0.642 | 0.695 | 0.673 | 0.496 | 0.441 | 0.205 | 0.184 | 0.184 | 0.152 | 0.107 | 0.472
